Results as given in patent US12004506B2, “Pharmaceutical composition comprising a cyclic peptide of formula X1-[sequence]-X2 and use for extracorporeal lung treatment” (priority 2013, dated 2024).
Read-outs that look alike come from different tables or passages of the source. Bridges are numbered along the chain shown (N, C = ends). Where no end group is shown, it is not given here.

Experiments:
[1] = test system: sodium ion current in A549 cells (deglycosylated cell surface); test: Patch clamp assay, whole cell mode, on A549 cells deglycosylated with PNGase F; assay type: cell-based, human; details: 240 nM peptide, Eh -100 mV; for Whole cell current, pre-treatment with PNGase F: A549
Description: In whole cell mode experiments as described above, A549 cells were incubated with “PNGase enzyme F” (Peptide-N^4-(N-acetyl-β-D-glucosaminyl)asparagine amidase F) 100 units for 1-5 minutes immediately prior to the patch clamp measurements and glass cover slips with the cultured cells were rinsed with external solution before being transferred to the chamber of the 1 mL bath.
The results of the deglycosylation experiments using the patch clamp assay in whole cell mode are presented in Table IV, wherein the effect of deglycosylation of A549 cells on activation of sodium ion current by peptides of SEQ ID NO:1 to SEQ ID NO:7 is indicated. Whole cell currents were recorded at Eh=−100 mV.

[2] = test system: sodium ion current in A549 cell line; details: for activity on sodium ion current (in words): A549, patch clamp
Description: Experiments were carried out on the human epithelial cell line A549 (ATTAC Nr. CCL-185) in passages 80-90. Cells were grown in Dulbecco's modified Eagle's medium/nutrient mixture F12 Ham, supplemented with 10% fetal bovine serum and containing 1% penicillin-streptomycin. All culture media were purchased from Sigma-Aldrich GmbH (St. Louis, MO).
Currents were recorded with the patch clamp method in the whole-cell mode. Glass cover slips with the cultured cells were transferred to a chamber of 1 ml capacity, mounted on the stage of an inverted microscope (Zeiss, Axiovert 100). The chamber contained 1 ml of the bath solution of the following composition (in mM): 145 NaCl, 2.7 KCl, 1.8 CaCl2), 2 MgCl2, 5.5 glucose and 10 HEPES, adjusted to pH 7.4 with 1 M NaOH solution. Micropipettes were pulled from thin-walled borosilicate glass capillaries (World Precision Instruments, Inc., FL, USA) with a Flaming Brown micropipette puller (P87, Sutter Instruments, CA, USA) and polished on a microforge (Narishige, Tokyo, Japan) to obtain electrode resistances ranging from 2.0 to 3.5 MΩ. […] Chemicals for pipette and bathing solutions were supplied by Sigma-Aldrich (Vienna, Austria). Electrophysiological measurements were carried out with an Axopatch 200B patch clamp amplifier (Axon Instruments, CA, USA). Capacity transients were cancelled, and series resistance was compensated. Whole cell currents were filtered at 5 kHz and sampled at 10 KHz. Data acquisition and storage were processed directly to a PC equipped with pCLAMP 10.0 software (Axon Instruments, CA, USA).
After GΩ-seal formation, the equilibration period of 5 min was followed by control recordings at holding potentials (Eh) between −100 and +100 mV in 20 mV increments for 1 min at each Eh. […] The wash-in phase lasted about 1 min. […] Concentration-response curves and EC50-values were fitted and estimated for currents recorded at Eh of −100 mV with SigmaPlot 9.0. […] Subsequent addition of 10 mM tetraethylammonium chloride (TEA) indicated whether any observed increases in the current were due to potassium current. […]

[3] = test system: non-ischemic pig donor lung; test: Ex vivo lung perfusion (EVLP) of non-ischemic pig donor lungs, inhalative application; details: pulmonary application
Description: Brain death pigs were turned into dorsal position, and a longitudinal sternotomy was performed. The pericardium and both pleural cavities were opened. […] An inflow catheter was placed in the pulmonary artery through a purse-string on the right ventricular outflow tract.
The lungs (non-ischemic) were then preserved with an ante grade flush of cold isotonic preservation solution (50 ml per kg body weigh of pig, containing potassium ions, sodium ions, magnesium ions, calcium ions, chloride ions, dextran, glucose, buffering ions) through the inflow catheter. Incision of the left auricular appendix provides outflow. The lungs were ventilated during this period with 50% oxygen, and iced slush were placed in both pleural cavities and mediastinum.
The explanation technique was en bloc harvesting with heart and esophagus according to the following steps: • a) Dissection of soft tissue bridges to the thoracic cavity on both sides of the trachea. • b) Transsection of both pulmonal ligaments (very deep, difficult exposure), then of the VCI, the lower thoracic descendent aorta and the esophagus, respectively. • c) Blunt separation from remaining mediastinal adhesions. • d) Complete inflation of the donor lung prior of tracheal closure with a stapler.
After explantation, the lungs were wrapped in gauze, placed in an insulated ice bag filled with low-potassium dextran extracellular solution, and stored at 4° C. for 18 to 24 hours. A temperature probe was submerged in the container, which will be placed in a refrigerator.
For ex-vivo lung conditioning, the EVLP technique ([…]) was used. In the EVLP technique, donor lungs are placed into a circuit composed of a pump, ventilator and filters. EVLP technique, the temperature may increased up to 37 °C. In the EVLP, a ventilator is used to deliver oxygen to the lungs. The pump is used to perfuse the lungs with an extracellular solution containing human albumin and nutrition. During EVLP, the lung function can be evaluated regularly on key indicators. […]

[4] = test system: sodium ion current in A549 cells (deglycosylated cell surface); test: Patch clamp assay, whole cell mode, on A549 cells deglycosylated with PNGase F; assay type: cell-based, human; details: 240 nM peptide, Eh -100 mV

Compound	Whole cell current, pre-treatment with PNGase F [1]	other results
C[C@@H]1NC(=O)CNC(=O)[C@H](CCC(=O)O)NC(=O)[C@@H]2CCCN2C(=O)[C@H]([C@@H](C)O)NC(=O)[C@H](CCC(=O)O)NC(=O)[C@H](CCCNC(=N)N)NC(=O)[C@H](CCC(N)=O)NC(=O)CNC(=O)[C@@H](N)CCCCNC(=O)CNC(=O)[C@H](Cc2ccc(O)cc2)NC(=O)[C@H](Cc2c[nH]c3ccccc23)NC(=O)[C@@H]2CCCN2C(=O)[C@H](CCCCN)NC(=O)[C@H](C)NC(=O)[C@H](CCC(=O)O)NC1=O [SEQ ID NO: 3]	20.6 pA (n = 3)	–
C[C@@H]1NC(=O)CNC(=O)[C@H](CCC(=O)O)NC(=O)[C@@H]2CCCN2C(=O)[C@H]([C@@H](C)O)NC(=O)[C@H](CCC(=O)O)NC(=O)[C@H](CCCNC(=N)N)NC(=O)[C@H](CCC(N)=O)NC(=O)CNC(=O)[C@@H]2CCCN2C(=O)[C@H](CO)NC(=O)[C@@H](N)CCCCNC(=O)CC[C@@H](C(=O)O)NC(=O)[C@H](Cc2ccc(O)cc2)NC(=O)[C@H](Cc2c[nH]c3ccccc23)NC(=O)[C@@H]2CCCN2C(=O)[C@H](CCCCN)NC(=O)[C@H](C)NC(=O)[C@H](CCC(=O)O)NC1=O [SEQ ID NO: 2]	21.3 pA (n = 3)	–
C[C@@H]1NC(=O)CNC(=O)[C@H](CCC(=O)O)NC(=O)[C@@H]2CCCN2C(=O)[C@H]([C@@H](C)O)NC(=O)[C@H](CCC(=O)O)NC(=O)[C@H](CCCNC(=N)N)NC(=O)[C@H](CCC(N)=O)NC(=O)CNC(=O)[C@@H](N)CCCNC(=O)CNC(=O)[C@H](Cc2ccc(O)cc2)NC(=O)[C@H](Cc2c[nH]c3ccccc23)NC(=O)[C@@H]2CCCN2C(=O)[C@H](CCCCN)NC(=O)[C@H](C)NC(=O)[C@H](CCC(=O)O)NC1=O [SEQ ID NO: 4]	22.5 pA (n = 3)	–
C[C@@H]1NC(=O)CNC(=O)[C@H](CCC(=O)O)NC(=O)[C@@H]2CCCN2C(=O)[C@H]([C@@H](C)O)NC(=O)[C@H](CCC(=O)O)NC(=O)[C@H](CCCNC(=N)N)NC(=O)[C@H](CCC(N)=O)NC(=O)CNC(=O)CCNC(=O)CC[C@@H](C(=O)O)NC(=O)[C@H](Cc2ccc(O)cc2)NC(=O)[C@H](Cc2c[nH]c3ccccc23)NC(=O)[C@@H]2CCCN2C(=O)[C@H](CCCCN)NC(=O)[C@H](C)NC(=O)[C@H](CCC(=O)O)NC1=O [SEQ ID NO: 6]	19.9 pA (n = 3)	–
Cyclo(CGQREAPAGAAAKPWYC) (disulfide 1-17) [SEQ ID NO: 7, reference compound]	no avtivity	activity on sodium ion current (in words) [2]: no activity; activity on sodium ion current (in words) ([2]; listed as SEQ ID NO:7): did not show activity; EC50 (nM) on cellular sodium ion current ([2]; A549, whole cell recording, Eh -100 mV): no activity; activity in deglycosylation experiments (in words) [1]: no activity; effects on lung function [3]: did not provide improving effects; Whole cell current, no pre-treatment with PNGase F [4]: no activity
C[C@@H]1NC(=O)CNC(=O)[C@H](CCC(=O)O)NC(=O)[C@@H]2CCCN2C(=O)[C@H]([C@@H](C)O)NC(=O)[C@H](CCC(=O)O)NC(=O)[C@H](CCCNC(=N)N)NC(=O)[C@H](CCC(N)=O)NC(=O)CNC(=O)CCCNC(=O)C[C@@H](C(=O)O)NC(=O)[C@H](Cc2ccc(O)cc2)NC(=O)[C@H](Cc2c[nH]c3ccccc23)NC(=O)[C@@H]2CCCN2C(=O)[C@H](CCCCN)NC(=O)[C@H](C)NC(=O)[C@H](CCC(=O)O)NC1=O [SEQ ID NO: 5]	22.4 pA (n = 3)	–
